Measurements published in patent publication US20260206761A1, “HETEROARYL-TRIAZOLE COMPOUNDS AS PESTICIDES” (Bayer Aktiengesellschaft, priority 2019, published 2026).

Assays:
Type in all cases: in vivo
[1] = test system: brown planthopper (Nilaparvata lugens); assay: Nilaparvata lugens spray test; settings: 96 h, after 4 days; for mortality at 100 g/ha: application rate 100 g/ha; for mortality at 500 g/ha: application rate 500 g/ha
Experimental: Nilaparvata lugens—Spray Test
Solvent: 78.0 parts by weight of acetone • • 1.5 parts by weight of dimethylformamide
(§1) Emulsifier: alkylarylpolyglycol ether
(§2) To produce a suitable preparation of active compound, 1 part by weight of active compound is mixed with the stated amount of solvents and is diluted with water, containing an emulsifier concentration of 1000 ppm, to the desired concentration. Further test concentrations are prepared by dilution with emulsifier containing water.
Rice plants (Oryza sativa) are sprayed with a preparation of the active ingredient of the desired concentration and the plants are infested with the brown planthopper (Nilaparvata lugens).
After 4 days mortality in % is determined. 100% means all planthoppers have been killed and 0% means none of the planthoppers have been killed.

[2] = test system: southern root-knot nematode (Meloidogyne incognita); assay: Meloidogyne incognita test; settings: 336 h, application rate 20 ppm, after 14 days, read-out: nematicidal activity (based on gall formation)
Experimental: Meloidoyne incognita—Test
Solvent: 125.0 parts by weight of acetone
To produce a suitable preparation of active compound, 1 part by weight of active compound is mixed with the stated amount of solvent, and the concentrate is diluted with water to the desired concentration.
Vessels are filled with sand, a solution of the active ingredient, a suspension containing eggs and larvae of the southern root-knot nematode (Meloidogyne incognita) and salad seeds. The salad seeds germinate and the seedlings grow. Galls develop in the roots.
After 14 days the nematicidal activity is determined based on the percentage of gall formation. 100% means no galls were found and 0% means the number of galls found on the roots of the treated plants was equal to that in untreated control plants.

[3] = test system: two spotted spidermite (Tetranychus urticae); assay: Tetranychus urticae spray test OP-resistant; settings: 144 h, application rate 100 g/ha, after 6 days
Experimental: Tetranychus urticae—Spray Test OP-Resistant
Solvent: 78.0 parts by weight acetone • 1.5 parts by weight dimethylformamide
as §1, §2
French bean (Phaseolus vulgaris) leaf disks infected with all instars of the two spotted spidermite (Tetranychus urticae), are sprayed with a preparation of the active ingredient of the desired concentration.
After 6 days mortality in % is determined. 100% means all spider mites have been killed and 0% means none of the spider mites have been killed.

SMILES	mortality at 100 g/ha [1] [%]	mortality at 500 g/ha [1] [%]	also measured
Cc1nc([C@H](C)NC(=O)c2cc(C(F)(F)F)cc(S(C)(=O)=O)c2)n(-c2ccc(C#N)cn2)n1 [II-52]	100		
Cc1nc([C@H](C)NC(=O)c2cc(C(F)(F)F)n(C)n2)n(-c2ncccn2)n1 [II-25]		90	
C[C@H](NC(=O)c1cc(Cl)cc(S(=O)(=O)C(F)F)c1)c1ncnn1-c1ncccn1 [II-34]	100	100	
C[C@H](NC(=O)c1cc(C#N)cc([S+](C)[O-])c1)c1ncnn1-c1ccc(C#N)cn1 (stereo partly drawn) [II-12]	100	100	
CC(NC(=O)c1cc(C(F)(F)F)cc(S(C)(=O)=O)c1)c1nc(Cl)nn1-c1ncccn1 (stereo not drawn) [I-30]	100		
C[C@H](NC(=O)c1cc(OC(F)(F)F)cc(C2CC2)c1)c1ncnn1-c1ccccn1 [II-22]		90	pest or weed control at 20 ppm [2]: 90%
C[C@H](NC(=O)c1cc(C(F)(F)F)cc(C2(C#N)CC2)c1)c1ncnn1-c1ccc(C#N)cn1 [II-47]			mortality at 100 g/ha [3]: 90%
C[C@H](NC(=O)c1cc(C2CC2)cc(C(F)(F)F)c1)c1ncnn1-c1ccc(C#N)cn1 [II-26]			mortality at 100 g/ha [3]: 90%
Cc1nc([C@H](C)NC(=O)c2cc(C(F)(F)F)cc(C3(C#N)CC3)c2)n(-c2ccc(C#N)cn2)n1 [II-49]	100		
C[C@H](NC(=O)c1cc(C(F)(F)F)cc(S(C)(=O)=O)c1)c1ncnn1-c1ncccn1 [II-13]	100	100	
C[C@H](NC(=O)c1cc(C#N)cc(C2CC2)c1)c1ncnn1-c1ncccn1 [II-54]	100		
